This is an account of results in patent US20240024346A1, “CD73 INHIBITORS AND PHARMACEUTICAL USES THEREOF” (RISEN (SUZHOU) PHARMA TECH CO., LTD., priority 2020, published 2024).

The target of the first assay is T1, CD73 protein (Homo sapiens, UniProt P21589).
T1 construct: purchased Novoprotein C446
T1 sequence (P21589 27-549): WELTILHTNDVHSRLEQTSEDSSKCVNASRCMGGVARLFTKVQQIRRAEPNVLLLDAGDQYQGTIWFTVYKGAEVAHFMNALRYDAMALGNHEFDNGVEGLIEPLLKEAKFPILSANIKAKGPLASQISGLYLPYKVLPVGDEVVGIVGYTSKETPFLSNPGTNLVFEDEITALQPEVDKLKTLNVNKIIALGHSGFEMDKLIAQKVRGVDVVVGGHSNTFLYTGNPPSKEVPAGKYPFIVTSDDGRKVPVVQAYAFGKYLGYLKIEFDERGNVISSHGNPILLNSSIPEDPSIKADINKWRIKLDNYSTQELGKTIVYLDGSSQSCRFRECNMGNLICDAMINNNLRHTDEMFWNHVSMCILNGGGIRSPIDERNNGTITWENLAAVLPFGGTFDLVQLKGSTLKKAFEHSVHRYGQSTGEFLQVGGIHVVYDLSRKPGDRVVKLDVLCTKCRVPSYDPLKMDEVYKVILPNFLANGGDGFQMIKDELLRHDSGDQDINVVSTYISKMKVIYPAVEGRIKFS
In words: CD73 enzyme inhibition assay (Malachite Green Phosphate Detection Kit). The conditions noted are these: Tris-HCl pH 7.3, read-out: Potency (IC50 class) in CD73 enzyme assay. The format is biochemical. As for the experimental part:
To evaluate the inhibitory effect of selected compounds on CD73, Malachite Green Phosphate Detection Kit (R&D, Cat #DY996) was used. Briefly, compounds were dissolved and diluted to the desired concentration using phosphate-free buffer (Tris-HCl, pH 7.3). 25 μL of the compound solution was added to an equal volume of CD73 protein solution (2×concentration, 0.5 μg/mL, Novoprotein, Cat #C446), followed by a 5-minute incubation at room temperature. 10 μL of Malachite Green Reagent A was added to each well, mixed thoroughly and incubated for 10 minutes at room temperature. 10 μL of Malachite Green Reagent B was then added to each well, mixed thoroughly and incubated for 20 minutes at room temperature. Finally, the optical density of each well was determined using a microplate reader set to 620 nm.
`O=P(O)(O)CP(=O)(O)OC[C@H]1O[C@@H](n2cnc3c(NCc4ccccc4)nc(Cl)nc32)C(O)C1O` (some centres unmarked) [Compound 1]: the IC50 (in general, the concentration that inhibits the measured activity by half) was < 10 nM.

Turning to `O=P(O)(O)CP(=O)(O)OC[C@H]1O[C@@H](n2cnc3c(NCc4cccc5ccccc45)nc(Cl)nc32)C(O)C1O` (some centres unmarked) [Compound 6], the IC50 was < 10 nM.

Turning to `O=P(O)(O)CP(=O)(O)OC[C@H]1O[C@@H](n2cnc3c(NCc4ccc5ccccc5c4)nc(Cl)nc32)C(O)C1O` (some centres unmarked) [Compound 7], the IC50 is < 10 nM. On to `C[C@]12C[C@@H]3C[C@](C)(C1)C[C@@](Nc1nc(Cl)nc4c1ncn4[C@@H]1O[C@H](COP(=O)(O)CP(=O)(O)O)C(O)C1O)(C3)C2` (some centres unmarked) [Compound 9], for which the IC50 was < 10 nM. Same read-out and setting: then `CCCCCCCCCCCCOC(=O)Nc1nc(Cl)nc2c1ncn2[C@@H]1O[C@H](COP(=O)(O)CP(=O)(O)O)C(O)C1O` (some centres unmarked) [Compound 15], with < 10 nM; and `O=C(CC12CC3CC(CC(C3)C1)C2)Nc1nc(Cl)nc2c1ncn2[C@@H]1O[C@H](COP(=O)(O)CP(=O)(O)O)C(O)C1O` (some centres unmarked) [Compound 16], with 10 to 100 nM; and `CCCCCCCCCCCCN(CCCCCCCCCCCC)c1nc(Cl)nc2c1ncn2[C@@H]1O[C@H](COP(=O)(O)CP(=O)(O)O)C(O)C1O` (some centres unmarked) [Compound 19], with > 100 nM.

Turning to `O=P(O)(O)CP(=O)(O)OC[C@H]1O[C@@H](n2cnc3c(NC45CC6CC(CC(C6)C4)C5)nc(Cl)nc32)C(O)C1O` (some centres unmarked) [Compound 22], the IC50 was < 10 nM. In the case of `CC1(C)[C@@H]2CC[C@@]1(C)C(OC(=O)Nc1nc(Cl)nc3c1ncn3[C@@H]1O[C@H](COP(=O)(O)CP(=O)(O)O)C(O)C1O)C2` (some centres unmarked) [Compound 23], the concentration for half-maximal inhibition (IC50) lay in the range of 10 to 100 nM. For `O=P(O)(O)CP(=O)(O)OC[C@H]1O[C@@H](n2cnc3c(N4CCC5(CCCCC5)C4)nc(Cl)nc32)C(O)C1O` (some centres unmarked) [Compound 31], the IC50 was < 10 nM.

Consider `O=P(O)(O)CP(=O)(O)OC[C@H]1O[C@@H](n2cnc3c(N4C5CCC4CC(O)C5)nc(Cl)nc32)C(O)C1O` (some centres unmarked) [Compound 51], for which the IC50 is < 10 nM.

Staying with this assay, now noted: result in words.
`O=P(O)(O)CP(=O)(O)CC[C@H]1O[C@@H](n2cnc3c(NCc4ccccc4)nc(Cl)nc32)C(O)C1O` (some centres unmarked) [a-1]: the “inhibitory activity in the CD73 enzyme assay” value is “showed inhibitory activity”. On the same count and under the same terms, then `C[C@]12C[C@@H]3C[C@](C)(C1)C[C@@](Nc1nc(Cl)nc4c1ncn4[C@@H]1O[C@H](CCP(=O)(O)CP(=O)(O)O)C(O)C1O)(C3)C2` (some centres unmarked) [a-9], with “showed inhibitory activity”; and `O=P(O)(O)CP(=O)(O)CC[C@H]1O[C@@H](n2cnc3c(N4CCC5(CCCCC5)C4)nc(Cl)nc32)C(O)C1O` (some centres unmarked) [a-31], with “showed inhibitory activity”.
